*1 amine or outer side, *2 acyl side, *3 side chain or, on linkers, in order; H or OH if unused. Where a SMILES comes first, the peptide text is derived from it. [ ]: non-standard residue; d: D form. The star is where a group is joined. Bip(2'-Et-4'-O(CH2)4NH2) = CCc1cc(OCCCCN[*:3])ccc1-c1ccc(C[C@H](N[*:1])C(=O)[*:2])cc1; Bip(2'-Et,4'-O(CH2)4NH2) = CCc1cc(OCCCCN)ccc1-c1ccc(C[C@H](N)C(=O)O)cc1; Malonyl(2,2-Me2,histaminyl) = CC(C)(C(=O)NCCc1cnc[nH]1)C(=O)*; X7 = O=C(NCCOCCOCCOCCOC(=O)*)OC[C@@H]1[C@@H]2CCC#CCC[C@@H]21; Nva(5-(3,5-Me2Ph)) = Cc1cc(C)cc(CCC[C@H](N)C(=O)O)c1; Ala(1H-tetrazol-5-yl) = N[C@@H](Cc1nnn[nH]1)C(=O)O; αMePhe(2-F) = C[C@](N)(Cc1ccccc1F)C(=O)O; X6 = CC(C)(C(=O)NO)C(=O)*
Tests used:
HEK293/CRE-Luc cells = test: Luciferase reporter assay, HEK293/CRE-Luc cells without GLP1R (Example 17); type: cell-based, human; conditions: HEK293/CRE-Luc cells without hGLP1R, payloads and linker-payloads; for EC50: read-out: EC50
Source text: (§1) To test the activity of GLP1R agonist payloads, GLP1R agonist linker-payloads (LPs), and anti-GLP1R antibody tethered drug conjugates (ATDCs) of the invention, a cell-based cAMP responsive luciferase reporter assay was developed. To generate the assay cell line, the firefly luciferase gene was placed under the control of a cAMP response element (CRE) located upstream of a minimal promoter and transfected into HEK293 cells and referred to herein as HEK293/CRE-Luc cells.
(§2) Three-fold serial dilutions of free payloads or LPs were prepared in 100% DMSO, transferred to fresh assay media, and added to the cells at a final constant DMSO concentration of 0.2%. The last well in the plate served as a blank control containing only the assay media and 0.2% DMSO (untreated well) and was plotted as a continuation of the 3-fold serial dilution. Four to six hours later, luciferase activity was determined after the addition of One-Glo™ reagent (Promega, Cat #E6130) to each well. Relative light units (RLUs) were measured on an Envision luminometer (PerkinElmer) and EC50 values were determined using a four-parameter logistic equation over a 12-point dose response curve (GraphPad Prism). The signal to noise (S/N) was determined by taking the ratio of the highest RLU on the dose response curve to the RLU in the untreated wells. Data was generated across several experiments (A-E) with M2361 serving as a reference standard in each experiment to calculate the payload relative potency ((M2361 EC50/payload EC50)*100)) and relative S/N ((payload SN/M2361 SN)*100)).

human GLP1R [1] = target: T1, human GLP1R (Homo sapiens, UniProt P43220); test: Luciferase reporter assay, HEK293/CRE-Luc/hGLP1R (Example 17); type: cell-based; parameters: engineered to express full-length human GLP1R, cynomolgus GLP1R; expressed in transfected cells; host or cells: HEK293/CRE-Luc; conditions: HEK293/CRE-Luc/hGLP1R; for S/N: highest RLU / RLU of untreated wells; for EC50: payloads and linker-payloads, experiments A-E, M2361 repeated in each, read-out: EC50; for Relative Potency (% M2361 EC50) / Relative Signal:Noise (% M2361): relative to M2361 of the same experiment
T1 sequence (P43220 24-463): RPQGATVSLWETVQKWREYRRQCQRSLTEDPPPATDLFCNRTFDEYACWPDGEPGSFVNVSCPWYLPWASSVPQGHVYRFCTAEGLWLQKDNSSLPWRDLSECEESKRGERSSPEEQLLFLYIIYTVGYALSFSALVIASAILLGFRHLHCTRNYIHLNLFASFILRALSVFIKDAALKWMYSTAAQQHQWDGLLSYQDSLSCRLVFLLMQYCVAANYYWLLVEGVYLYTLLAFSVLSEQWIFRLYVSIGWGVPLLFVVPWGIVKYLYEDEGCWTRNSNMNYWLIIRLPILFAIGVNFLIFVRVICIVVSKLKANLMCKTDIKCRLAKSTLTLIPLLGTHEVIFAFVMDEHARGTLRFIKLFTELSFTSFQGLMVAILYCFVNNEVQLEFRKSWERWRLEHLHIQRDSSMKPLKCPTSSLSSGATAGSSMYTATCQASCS
Source text: as §1, §2

human GLP1R [2] = target: T1, human GLP1R; test: Human GLP1R cAMP accumulation assay; type: cell-based; parameters: HEK293 cells over-expressing full length human GLP-1R were utilized; expressed in transfected cells; host or cells: HEK293 (HEK293/hGLP1R); conditions: HEK293/hGLP1R cells; Table 4; read-out: cAMP EC50
Description: 8.1 Human GLP1R cAMP Accumulation Assay (Cyclic AMP Determination)
The functional activity of the test compounds for agonizing GLP1R were evaluated using a cell-based assay. For the assay, HEK293 cells over-expressing full length human GLP-1R were utilized and the downstream cAMP accumulation was assessed as a measure of human GLP-1R stimulation. […] Diluted compounds were transferred to OptiPlates (100 nL/well) using an Echo liquid handler. HEK293/hGLP1R cells were thawed in 37° C. water-bath, washed 2 times with HBSS and re-suspended in assay buffer (HBSS+5 mM HEPES+500 μM IBMX+0.1% BSA). […] After centrifugation, the assay plate was incubated at 23° C. for 30 min. The reaction was terminated by adding 10 μL of lysis buffer containing D2-cAMP and a cAMP-antibody from the cyclic AMP immunoassay kit (Cisbio, Cat #62AM4PEJ). […] The levels of cAMP per well were calculated using a standard curve generated by GraphPad Prism. Percent activity was calculated according to the formula (% Activity=100%*(cAMP level-LC)/(HC-LC)). EC50 values were fitted from a four-parameter logistic equation over a 10-point response curve (GraphPad Prism).

Row | SMILES | S/N (HEK293/CRE-Luc cells) | EC50 (HEK293/CRE-Luc cells) | S/N (human GLP1R [1]) | EC50 (human GLP1R [1]) | Relative Potency (% M2361 EC50) (human GLP1R [1]) | Relative Signal:Noise (% M2361) (human GLP1R [1]) | EC50 (human GLP1R [2])
1 | CCc1cc(OC)ccc1-c1ccc(C[C@H](NC(=O)[C@H](CC(=O)O)NC(=O)[C@H](CO)NC(=O)C(NC(=O)[C@](C)(Cc2ccccc2F)NC(=O)[C@@H](NC(=O)CNC(=O)[C@H](Cc2nn[nH]n2)NC(=O)C(C)(C)C(=O)NCCc2cnc[nH]2)[C@@H](C)O)[C@@H](C)O)C(=O)N[C@@H](CCCc2ccc(OCCCCN)cc2)C(N)=O)cc1 (stereo in doubt) [P24] | 1.0 | > 200 nM | 65.0 | 0.0316 nM | 16.8% | 98.9% | 0.136 nM
2 | CCc1cc(OCCCCNC(=O)OCCOCCOCCOCCNC(=O)OC[C@@H]2[C@@H]3CCC#CCC[C@@H]32)ccc1-c1ccc(C[C@H](NC(=O)[C@H](CC(=O)O)NC(=O)[C@H](CO)NC(=O)[C@@H](NC(=O)[C@](C)(Cc2ccccc2F)NC(=O)[C@@H](NC(=O)CNC(=O)[C@H](Cc2nn[nH]n2)NC(=O)C(C)(C)C(=O)NCCc2cnc[nH]2)[C@@H](C)O)[C@@H](C)O)C(=O)N[C@@H](CCCc2cc(C)cc(C)c2)C(N)=O)cc1 [LP5, BCN-PEG4-carba-mate P9] ({Malonyl(2,2-Me2,histaminyl)}-[Ala(1H-tetrazol-5-yl)]GT[αMePhe(2-F)]TSD[Bip(2'-Et-4'-O(CH2)4NH2)](X7)[Nva(5-(3,5-Me2Ph))]-NH2) | 1.8 | > 200 nM | 54.8 | 0.0242 nM | 21.9% | 83.4% | 0.044 nM
3 | CCc1cc(OCCCCNC(=O)[C@H](CO)NC(=O)CNC(=O)CNC(=O)CNC(=O)CNC(=O)CCC(=O)N2Cc3ccccc3C#Cc3ccccc32)ccc1-c1ccc(C[C@H](NC(=O)[C@H](CC(=O)O)NC(=O)[C@H](CO)NC(=O)[C@@H](NC(=O)[C@](C)(Cc2ccccc2F)NC(=O)[C@@H](NC(=O)CNC(=O)[C@H](Cc2nn[nH]n2)NC(=O)C(C)(C)C(=O)NCCc2cnc[nH]2)[C@@H](C)O)[C@@H](C)O)C(=O)N[C@@H](CCCc2cc(C)cc(C)c2)C(N)=O)cc1 [LP6, DIBAC- suc-G4S- P9] | 1.4 | > 200 nM | 65.7 | 0.0251 nM | 21.2% | 99.9% | 0.436 nM
4 | CCc1cc(OCCCCNC(=O)CNC(=O)CNC(=O)CNC(=O)CNC(=O)[C@H](CO)NC(=O)CCC(=O)N2Cc3ccccc3C#Cc3ccccc32)ccc1-c1ccc(C[C@H](NC(=O)[C@H](CC(=O)O)NC(=O)[C@H](CO)NC(=O)[C@@H](NC(=O)[C@](C)(Cc2ccccc2F)NC(=O)[C@@H](NC(=O)CNC(=O)[C@H](Cc2nn[nH]n2)NC(=O)C(C)(C)C(=O)NCCc2cnc[nH]2)[C@@H](C)O)[C@@H](C)O)C(=O)N[C@@H](CCCc2cc(C)cc(C)c2)C(N)=O)cc1 [LP7, DIBAC-suc-SG4-P9] | 1.1 | > 200 nM | 55.3 | 0.00972 nM | 54.6% | 84.1% | 0.378 nM
5 | CCc1cc(OCCCCn2cc(COCCOCCOCCOCCNC(=O)OC[C@@H]3[C@@H]4CCC#CCC[C@@H]43)nn2)ccc1-c1ccc(C[C@H](NC(=O)[C@H](CC(=O)O)NC(=O)[C@H](CO)NC(=O)[C@@H](NC(=O)[C@](C)(Cc2ccccc2F)NC(=O)[C@@H](NC(=O)CNC(=O)[C@H](Cc2nn[nH]n2)NC(=O)C(C)(C)C(=O)NCCc2cnc[nH]2)[C@@H](C)O)[C@@H](C)O)C(=O)N[C@@H](CCCc2cc(C)cc(C)c2)C(N)=O)cc1 [LP9, BCN-PEG4-triazole-P8] | 1.3 | > 200 nM | 73.8 | 0.0174 nM | 30.5% | 112.2% | 0.078 nM
6 | CCc1cc(OCCCCNC(=O)[C@H](CO)NC(=O)CNC(=O)CNC(=O)CNC(=O)CNC(=O)CCC(=O)N2Cc3ccccc3C#Cc3ccccc32)ccc1-c1ccc(C[C@H](NC(=O)[C@H](CC(=O)O)NC(=O)[C@H](CO)NC(=O)[C@@H](NC(=O)[C@](C)(Cc2ccccc2F)NC(=O)[C@@H](NC(=O)CNC(=O)[C@H](Cc2nn[nH]n2)NC(=O)C(C)(C)C(=O)NCCc2cnc[nH]2)[C@@H](C)O)[C@@H](C)O)C(=O)N[C@@H](CCCc2cc(C)cc(C)c2)C(=O)Nc2ccccc2)cc1 [LP15, DIBAC- suc-G4S- P23] | 1.5 | > 200 nM | 48.1 | 0.0704 nM | 7.5% | 73.2% | 0.649 nM
7 | CCc1cc(OCCCCNC(=O)CNC(=O)CNC(=O)CNC(=O)CNC(=O)[C@H](CO[C@@H]2O[C@H](CO)[C@@H](O)[C@H](O)[C@H]2O)NC(=O)CCNC(=O)OC[C@@H]2[C@@H]3CCC#CCC[C@@H]32)ccc1-c1ccc(C[C@H](NC(=O)[C@H](CC(=O)O)NC(=O)[C@H](CO)NC(=O)[C@@H](NC(=O)[C@](C)(Cc2ccccc2F)NC(=O)[C@@H](NC(=O)CNC(=O)[C@H](Cc2nn[nH]n2)NC(=O)C(C)(C)C(=O)NCCc2cnc[nH]2)[C@@H](C)O)[C@@H](C)O)C(=O)N[C@@H](CCCc2cc(C)cc(C)c2)C(N)=O)cc1 [LP18, BCN NHC2 H4CO (glucose) SG4-P9] | 1.1 | > 200 nM | 62.1 | 0.0467 nM | 11.4% | 94.4% | 0.458 nM
8 | CCc1cc(OCCCCN)ccc1-c1ccc(C[C@H](NC(=O)[C@H](CC(=O)O)NC(=O)[C@H](CO)NC(=O)[C@@H](NC(=O)[C@](C)(Cc2ccccc2F)NC(=O)[C@@H](NC(=O)CNC(=O)[C@H](Cc2nn[nH]n2)NC(=O)C(C)(C)C(=O)NO)[C@@H](C)O)[C@@H](C)O)C(=O)N[C@@H](CCCc2cc(C)cc(C)c2)C(N)=O)cc1 [P5] (X6-[Ala(1H-tetrazol-5-yl)]GT[αMePhe(2-F)]TSD[Bip(2'-Et,4'-O(CH2)4NH2)][Nva(5-(3,5-Me2Ph))]-NH2) | 1.3 | > 200 nM | 50.6 | 0.127 nM | 4.2% | 76.9% | 0.115 nM
9 | CCc1cc(OCCCCN)ccc1-c1ccc(C[C@H](NC(=O)[C@H](CC(=O)O)NC(=O)[C@H](CO)NC(=O)[C@@H](NC(=O)[C@](C)(Cc2ccccc2F)NC(=O)[C@@H](NC(=O)CNC(=O)[C@H](Cc2nn[nH]n2)NC(=O)[C@@H](N)CO)[C@@H](C)O)[C@@H](C)O)C(=O)N[C@@H](CCCc2cc(C)cc(C)c2)C(N)=O)cc1 [P7] (H-S[Ala(1H-tetrazol-5-yl)]GT[αMePhe(2-F)]TSD[Bip(2'-Et,4'-O(CH2)4NH2)][Nva(5-(3,5-Me2Ph))]-NH2) | 1.0 | > 200 nM | 48.4 | 1.89 nM | 0.3% | 73.6% | 2.06 nM
10 | CCc1cc(OCCCCN)ccc1-c1ccc(C[C@H](NC(=O)[C@H](CC(=O)O)NC(=O)[C@H](CO)NC(=O)[C@@H](NC(=O)[C@](C)(Cc2ccccc2F)NC(=O)[C@@H](NC(=O)CNC(=O)[C@H](Cc2nn[nH]n2)NC(=O)[C@H](C)NC(=O)[C@@H](N)Cc2ccc(O)cc2)[C@@H](C)O)[C@@H](C)O)C(=O)N[C@@H](CCCc2cc(C)cc(C)c2)C(N)=O)cc1 [P18] | 1.4 | > 200 nM | 68.2 | 0.0613 nM | 8.7% | 103.6% | 0.37 nM

From patent US20230330254A1 (Regeneron Pharmaceuticals, Inc., priority 2022, published 2023)
